{"source": "patent US20260167638A1", "about": "“PHARMACEUTICAL COMPOUND, SALTS THEREOF, FORMULATIONS THEREOF, AND METHODS OF MAKING AND USING SAME” (Genentech, Inc., priority 2018, published 2026)", "key": {"[1]": {"experiment": "Approximate solubility in MeOH/MTBE at room temperature", "format": "physicochemical", "settings": "organic solvent or mixture", "protocol": "The approximate solubility of mono-tosylate Type A was measured in MeOH/MTBE at room temperature. […] To achieve appropriate volumetric efficiency and yield, the starting concentration in MeOH was 250 mg/mL and the final ratio of the anti-solvent crystallization process in MeOH/MTBE (v/v) was 1:3."}, "[2]": {"experiment": "Dissolution and precipitation in pH 6.5 phosphate buffer at 37° C. containing HPMC", "format": "physicochemical", "excerpt": "The inclusion of HPMC in the tablet of Example 16 was to maintain the supersaturation of Compound I API after its mono-tosylate salt dissolves. […]"}, "[3]": {"experiment": "Example 21 crossover pharmacokinetics of mono-tosylate and di-tosylate tablets in fasted dogs", "format": "in vivo, beagle dogs", "parameters": "Plasma concentration of Compound I at 0.25 hours: unit: ng/mL", "settings": "Example 21, fasted dogs, 200 mg tablet PO", "protocol": "Pharmacokinetics parameters of formulations of Compound I and its salts in dogs were determined by orally administering a test formulation tablet at 200 mg of active (Compound I or salt) per dog.\nBlood samples were taken at various times after administration, plasma prepared, and submitted to analysis for parent drug using a qualified LC-MS-MS assay. Pharmacokinetics parameters derived from the plasma analytical data were determined using non-compartmental analysis.\nPharmacokinetics of Compound I were determined in pentagastrin-pretreated male beagle dogs following a single oral (PO) administration at 200 mg/tablet per dog in a 2-phase crossover designed study, with a washout period of at least 7 days in between each phase. Five male, non-naive, purebred beagle dogs were used in each phase of the 2-phase crossover study. All dogs were pretreated with pentagastrin (6 μg/kg intramuscular administrations) approximately 30 minutes before test article administration.\nTwo tablet formulations (mono-tosylate and di-tosylate, as described above) of test article were assessed. Animals were fasted overnight prior to PO dosing through approximately 4 hours post-dose. The tablet was administered orally, followed by approximately 10 mL of reverse osmosis water. Phase 1 animals were given tablets containing Compound I mono-tosylate, and phase 2 animals were given tablets containing Compound I di-tosylate salt. Blood samples were collected pre-dose and at 0.25, 0.5. 1. 2, 4, 8, 24, 36, and 48 hours after the oral dose. Plasma was harvested, and the concentration of Compound I in each plasma sample was determined by an LC/MS/MS assay. The assay lower limit of quantitation was 20 ng/mL for Compound I. Mean Compound I concentrations measured in plasma were used to construct semi-logarithmic plasma concentration-time curves (FIG. 1). Pharmacokinetic analysis was performed using non-compartmental methods."}, "[4]": {"settings": "individual subjects, LLOQ 20 ng/mL, mono-tosylate salt"}, "[5]": {"settings": "individual subjects, mono-tosylate salt"}}, "note": "“And” between values parts separate entries of the source, which are not always exact repeats. Equal entries are not always repeated. Where two headings read alike, the source gives them in different places.", "data": [{"smiles": "Cc1ccc(S(=O)(=O)O)cc1.Cn1cc(-c2cn(-c3ccc(OC(F)(F)F)cc3)c(=O)c3ncn(C)c23)cn1", "note": "[mono-tosylate, 1-methyl-7-(1-methyl-1H-pyrazol-4-yl)-5-(4-(trifluoromethoxy)phenyl)-1,5-dihydro-4H-imidazo[4,5-c]pyridin-4-one, mono-tosylate salt]", "values": [{"measurement": "solubility", "setting": "[1]; MeOH/MTBE (v/v, 1:2), read-out: approximate solubility in MeOH/MTBE (v/v, 1:2)", "value": "9.3 to 18.6", "unit": "mg/mL"}, {"measurement": "solubility", "setting": "[1]; MeOH/MTBE (v/v, 1:3), read-out: approximate solubility in MeOH/MTBE (v/v, 1:3)", "value": "< 5.4", "unit": "mg/mL"}, {"measurement": "solubility", "setting": "[1]; methanol, read-out: approximate solubility in MeOH", "value": "264 to 348", "unit": "mg/mL"}, {"measurement": "Compound I concentration maintained", "setting": "[2]; HPMC 5 μg/mL", "value": 160, "unit": "µg/mL"}, {"measurement": "maintenance of Compound I supersaturation", "setting": "[2]; HPMC 1 or 2 μg/mL", "value": "did not substantially maintain Compound I supersaturation"}, {"measurement": "API concentration after dissolution", "setting": "[2]; absence of HPMC, in 10 minutes", "value": 80, "unit": "µg/mL"}, {"measurement": "Plasma concentration of Compound I at 48 hours", "setting": "[3]; individual subjects, LLOQ 20 ng/mL", "value": "BLQ"}, {"measurement": "Plasma concentration of Compound I at 0.25 hours", "setting": "[3]; [4]", "value": "179 and 452 and 100 and 74.0 and 161"}, {"measurement": "Plasma concentration of Compound I at 0.5 hours", "setting": "[3]; [4]", "value": "1180 and 3040 and 1320 and 3170"}, {"measurement": "Plasma concentration of Compound I at 4 hours", "setting": "[3]; [4]", "value": "3550 and 5080 and 7990 and 10200 and 1850"}, {"measurement": "Plasma concentration of Compound I at 8 hours", "setting": "[3]; [4]", "value": "1140 and 3110 and 5060 and 5380 and 378"}, {"measurement": "Plasma concentration of Compound I at 24 hours", "setting": "[3]; [4]", "value": "95.5 and 4080 and 252 and 1050 and 25.7"}, {"measurement": "Plasma concentration of Compound I at 36 hours", "setting": "[3]; [4]", "value": "BLQ (3×) and 897 and 74.4"}, {"measurement": "AUC0-last", "setting": "[3]; [5]", "value": "26900 ng·h/mL and 122000 ng·h/mL and 77900 ng·h/mL and 110000 ng·h/mL and 14000 ng·h/mL"}, {"measurement": "AUC0-rt", "setting": "[3]; [5]", "value": "27400 ng·h/mL and 123000 ng·h/mL and 79400 ng·h/mL and 110000 ng·h/mL and 14100 ng·h/mL"}, {"measurement": "Cmax", "setting": "[3]; [5]", "value": "3570 ng/mL and 5940 ng/mL and 9410 ng/mL and 10500 ng/mL and 2960 ng/mL"}, {"measurement": "Plasma concentration of Compound I at 48 hours", "setting": "[3]; mean, LLOQ 20 ng/mL", "value": "BLQ"}, {"measurement": "AUC(0-t)", "setting": "[3]; male, beagle, dog, plasma, po, 200 mg, mean", "value": 70200, "unit": "ng·h/mL"}, {"measurement": "AUC", "setting": "[3]; male, beagle, dog, plasma, po, 200 mg, mean, read-out: AUC0-rt", "value": 70900, "unit": "ng·h/mL"}, {"measurement": "Cmax", "setting": "[3]; male, beagle, dog, plasma, po, 200 mg, mean, read-out: Cmax", "value": 6480, "unit": "ng/mL"}, {"measurement": "concentration at 0.25 h", "setting": "[3]; male, beagle, dog, plasma, po, 200 mg/tablet per dog, mean, LLOQ 20 ng/mL, read-out: Plasma concentration of Compound I at 0.25 hours", "value": 193, "unit": "ng/mL"}, {"measurement": "concentration at 0.5 h", "setting": "[3]; male, beagle, dog, plasma, po, 200 mg/tablet per dog, mean, LLOQ 20 ng/mL, read-out: Plasma concentration of Compound I at 0.5 hours", "value": 1910, "unit": "ng/mL"}, {"measurement": "concentration at 1 h", "setting": "[3]; male, beagle, dog, plasma, po, 200 mg/tablet per dog, mean, LLOQ 20 ng/mL, read-out: Plasma concentration of Compound I at 1 hour", "value": 4690, "unit": "ng/mL"}, {"measurement": "concentration at 2 h", "setting": "[3]; male, beagle, dog, plasma, po, 200 mg/tablet per dog, mean, LLOQ 20 ng/mL, read-out: Plasma concentration of Compound I at 2 hours", "value": 6480, "unit": "ng/mL"}, {"measurement": "concentration at 4 h", "setting": "[3]; male, beagle, dog, plasma, po, 200 mg/tablet per dog, mean, LLOQ 20 ng/mL, read-out: Plasma concentration of Compound I at 4 hours", "value": 5730, "unit": "ng/mL"}, {"measurement": "concentration at 8 h", "setting": "[3]; male, beagle, dog, plasma, po, 200 mg/tablet per dog, mean, LLOQ 20 ng/mL, read-out: Plasma concentration of Compound I at 8 hours", "value": 3010, "unit": "ng/mL"}, {"measurement": "concentration at 24 h", "setting": "[3]; male, beagle, dog, plasma, po, 200 mg/tablet per dog, mean, LLOQ 20 ng/mL, read-out: Plasma concentration of Compound I at 24 hours", "value": 1100, "unit": "ng/mL"}, {"measurement": "concentration at 36 h", "setting": "[3]; male, beagle, dog, plasma, po, 200 mg/tablet per dog, mean, LLOQ 20 ng/mL, read-out: Plasma concentration of Compound I at 36 hours", "value": 486, "unit": "ng/mL"}, {"measurement": "tmax", "setting": "[3]; male, beagle, dog, plasma, mean, read-out: tmax", "value": 2, "unit": "h"}]}]}
